Key:
[1] = sites of metabolism of dimebolin in humans; assay type: in vivo; details: discoveries made in our laboratory and literature
[2] = cited from earlier work

## Cc1ccc2c(c1)c1c(n2CCc2ccc(C)nc2)CCN(C)C1 [dimebolin, 2,8-dimethyl-5-[2-(6-methyl-pyridin-3-yl)-ethyl]-2,3,4,5-tetrahydro-1H-pyrido[4,3-b]indole]
[1]
  sites of metabolism: metabolized in humans at the pyridyl methyl group, the tolyl methyl group, the ethylene linker, and the N-methyl group
[2]; >5% of patients and at least twice the incidence of placebo
  common adverse events: dry mouth, depressed mood/depression, and hyperhidrosis
[2]; double-blind study, dimebolin group
  patients reporting at least 1 serious adverse effect: 3%
[2]; double-blind study, patients taking dimebolin
  patients reporting at least 1 adverse effect: 79%

Reference: patent publication US20100125085A1, “PYRIDOINDOLE MODULATORS OF NMDA RECEPTOR AND ACETYLCHOLINESTERASE” (AUSPEX PHARMACEUTICALS, INC., priority 2008, published 2010)
